In one test the target is T1, BTK enzyme (recombinant full-length BTK, hBTK) (Homo sapiens, UniProt Q06187).
T1 construct: recombinant protein from baculovirus-transfected Sf9 cells: full-length BTK, 6HIS-tag cleaved; 6HIS (cleaved yes); made in house; host or cells: baculovirus-transfected Sf9 cells
T1 sequence (Q06187 whole entry): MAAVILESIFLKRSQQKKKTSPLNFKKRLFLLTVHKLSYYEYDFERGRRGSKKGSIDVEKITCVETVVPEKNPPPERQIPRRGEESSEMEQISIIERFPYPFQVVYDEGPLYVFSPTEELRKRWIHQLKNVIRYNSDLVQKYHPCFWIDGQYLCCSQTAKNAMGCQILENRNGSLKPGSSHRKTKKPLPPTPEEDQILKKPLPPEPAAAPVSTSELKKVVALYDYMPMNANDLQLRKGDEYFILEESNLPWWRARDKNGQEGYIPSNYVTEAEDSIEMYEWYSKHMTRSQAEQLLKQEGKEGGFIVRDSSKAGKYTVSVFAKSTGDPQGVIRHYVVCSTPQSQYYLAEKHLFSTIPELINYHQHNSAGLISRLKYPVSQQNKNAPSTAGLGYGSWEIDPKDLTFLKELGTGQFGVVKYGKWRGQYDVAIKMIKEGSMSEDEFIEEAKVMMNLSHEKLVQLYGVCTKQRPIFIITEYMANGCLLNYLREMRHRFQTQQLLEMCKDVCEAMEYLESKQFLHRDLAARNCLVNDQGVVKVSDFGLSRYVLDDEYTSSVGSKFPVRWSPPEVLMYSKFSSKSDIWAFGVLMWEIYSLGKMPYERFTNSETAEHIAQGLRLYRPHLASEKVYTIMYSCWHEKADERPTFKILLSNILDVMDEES
Kind of test: BTK enzyme activity assay, LANCE TR-FRET. The class given is biochemical. The settings on record: 50 pM hBTK, 2 μM biotin-A5-peptide, 25 μM ATP; 60 min compound & enzyme incubation; read-out: IC50 BTK activity value.
Consider `Nc1nccn2c([C@H]3CC[C@@H]4COC(=O)N4C3)nc(-c3ccc(C(=O)Nc4cc(C(F)(F)F)ccn4)cc3F)c12` (stereo in doubt) [Example 13, 4-(8-amino-3-((6S,8aR)-3-oxohexahydro-1H-oxazolo[3,4-a]pyridin-6-yl)imidazo[1,5-a]pyrazin-1-yl)-3-fluoro-N-(4-(trifluoromethyl)pyridin-2-yl)benzamide], for which the IC50 (usually the point on the concentration scale where inhibition reaches its midpoint) is 1.3 nM.

`Nc1nccn2c([C@@H]3CC[C@H]4CCC(=O)N4C3)nc(-c3ccc(C(=O)Nc4cc(OC5CC5)ccn4)cc3)c12` [Example 5, 4-(8-amino-3-((6R,8aS)-3-oxooctahydroindolizin-6-yl)imidazo[1,5-a]pyrazin-1-yl)-N-(4-cyclopropoxypyridin-2-yl)benzamide]: the IC50 was 0.24 nM.

`Nc1nccn2c([C@@H]3CC[C@H]4CCC(=O)N4C3)nc(-c3ccc(C(=O)Nc4cc(C5CCC5)ccn4)cc3)c12` [Example 7, 4-(8-amino-3-((6R,8aS)-3-oxooctahydroindolizin-6-yl)imidazo[1,5-a]pyrazin-1-yl)-N-(4-cyclobutylpyridin-2-yl)benzamide]: the IC50 is 60.6 nM.

Regarding `Nc1nccn2c([C@@H]3CC[C@H]4COC(=O)N4C3)nc(-c3ccc(C(=O)Nc4cc(C(F)(F)F)ccn4)cc3F)c12` [Example 12, 4-(8-amino-3-((6R,8aS)-3-oxohexahydro-1H-oxazolo[3,4-a]pyridin-6-yl)imidazo[1,5-a]pyrazin-1-yl)-3-fluoro-N-(4-(trifluoromethyl)pyridin-2-yl)benzamide], the IC50 was 0.083 nM.

As for `Nc1nccn2c([C@@H]3CC[C@H]4CCC(=O)N4C3)nc(-c3ccc(C(=O)Nc4cc(C(F)F)ccn4)cc3F)c12` [Example 14, 4-{8-amino-3-[(6R,8aS)-3-oxooctahydroindolizin-6-yl]imidazo[1,5-a]pyrazin-1-yl}-N-[4-(difluoromethyl)pyridin-2-yl]-3-fluorobenzamide], the half-inhibitory concentration (IC50) worked out at 0.12 nM.

`Nc1nccn2c([C@@H]3CC[C@H]4CCC(=O)N4C3)nc(-c3ccc(C(=O)Nc4cc(C(F)F)ccn4)cc3)c12` [Example 17]: the IC50 stood at 0.31 nM.

On to `Cc1cc(-c2nc([C@@H]3CC[C@H]4CCC(=O)N4C3)n3ccnc(N)c23)ccc1C(=O)Nc1cc(C(F)(F)F)ccn1` [Example 22, 4-{8-amino-3-[(6R,8aS)-3-oxooctahydroindolizin-6-yl]imidazo[1,5-a]pyrazin-1-yl}-2-methyl-N-[4-(trifluoromethyl)pyridin-2-yl]benzamide], for which the IC50 amounted to 0.41 nM.

Regarding `CC(F)(F)c1ccnc(NC(=O)c2ccc(-c3nc([C@@H]4CC[C@H]5CCC(=O)N5C4)n4ccnc(N)c34)cc2F)c1` [Example 25, 4-{8-amino-3-[(6R,8aS)-3-oxooctahydroindolizin-6-yl]imidazo[1,5-a]pyrazin-1-yl}-N-[4-(1,1-difluoroethyl)pyridin-2-yl]-2-fluorobenzamide], the concentration for half-maximal inhibition (IC50) stood at 0.54 nM.

As for `Nc1nccn2c([C@@H]3CC[C@H]4CCC(=O)N4C3)nc(-c3ccc(C(=O)Nc4cc(C(F)F)ccn4)c(F)c3)c12` [Example 26, 4-{8-amino-3-[(6R,8aS)-3-oxooctahydroindolizin-6-yl]imidazo[1,5-a]pyrazin-1-yl}-N-[4-(difluoromethyl)pyridin-2-yl]-2-fluorobenzamide], the IC50 stood at 1.5 nM.

Staying with this test, now noted: IC50 BTK activity value, 50 pM hBTK, 2 μM biotin-A5-peptide, 25 μM ATP; 60 min compound & enzyme incubation.
Consider `Nc1nccn2c([C@H]3CC[C@H]4COC(=O)N4C3)nc(-c3ccc(C(=O)Nc4cc(C(F)(F)F)ccn4)cc3)c12` [Example 1, 4-(8-amino-3-((6S,8aS)-3-oxohexahydro-1H-oxazolo[3,4-a]pyridin-6-yl)imidazo[1,5-a]pyrazin-1-yl)-N-(4-(trifluoromethyl)pyridin-2-yl)benzamide], for which the IC50 was 5.5 nM.

Regarding `Nc1nccn2c([C@@H]3CC[C@@H]4COC(=O)N4C3)nc(-c3ccc(C(=O)Nc4cc(C(F)(F)F)ccn4)cc3)c12` [Example 2, 4-(8-amino-3-((6R,8aR)-3-oxohexahydro-1H-oxazolo[3,4-a]pyridin-6-yl)imidazo[1,5-a]pyrazin-1-yl)-N-(4-(trifluoromethyl)pyridin-2-yl)benzamide], the IC50 worked out at 15.6 nM.
